Data on 16 molecules can be found in PubChem BioAssay (NCI).

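Following 48 hours of exposure in 96-well plates, responses at five concentrations were used to interpolate endpoints linearly. At the TGI there is no net growth.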

Common to all, as to assay: growth of human tumour cells (NCI), 48 h
Test [1] deals with SF-295 CNS.
Test [2] relates to SK-MEL-5 melanoma.
The subject of test [3] is PC-3 prostate.
The test system of test [4] is KM12 colon.
Test [5] deals with T-47D breast.
The subject of test [6] is UACC-62 melanoma.
For test [7], the system named is SF-539 CNS.
The test system of test [8] is SK-OV-3 ovarian.
The subject of test [9] is A549 NSCLC.
For test [10], the system named is HCC-2998 colon.

On to `COc1ccc(CC2COc3cc(O)cc(O)c3C2=O)cc1O` (configuration not stated), for which the TGI in [1] was 24.1 µM; in test [2], over 100 µM; in test [3], over 100 µM; in test [4], 43.9 µM; in [5], over 100 µM; in test [6] it was over 100 µM. Also, the values for the TGI in test [7], in [8] and in test [9] were 10.1 µM, 38.6 µM and over 100 µM, respectively.

Turning to `COc1ccc(C2c3cc4c(cc3OC(N3CCOCC3)C2C)OCO4)c(OC)c1OC` (configuration not stated), the TGI in [1] was 43 µM; in test [2], 23.1 µM; in test [3] it was 88.7 µM; in test [4] it was 30.8 µM; in test [5] it was over 100 µM; in [6], 69.7 µM. In addition, the TGI in test [7] is 27.7 µM; in test [10], 25 µM; in test [9] it was over 100 µM.

As for `O=c1cc(N2CCCC2)[nH]c(=O)n1-c1ccccc1`, the TGI in [1], in [2], in test [3], in test [4], in test [7] and in [10] was over 100 µM in each case. Further, the TGI in test [9] is over 100 µM.

For `CCOC(=O)C1CCC(=O)N1C(=O)c1ccccc1` (configuration not stated), the TGI in test [1], in test [2], in test [3], in [4], in [5] and in test [6] was over 100 µM throughout. In addition, the TGI in test [7], in [10] and in test [9] was over 100 µM each time.

As for `CCOC(=O)c1nc2cc(C(F)(F)F)ccc2nc1Nc1ccc(C(=O)NC(C(=O)OCC)C(=O)OCC)cc1`, the TGI was 30.8 µM in test [1]; 54.2 µM in [2]; over 100 µM in test [3]; over 100 µM in test [4]; 27.6 µM in [6]; 42.1 µM in test [8]. In addition, the TGI in test [10] is over 100 µM.

`S=c1cc(-c2ccc3c(c2)OCO3)s[nH]1`: the TGI in [1], in test [2], in [3], in [4], in test [5] and in test [6] was over 100 µM in each case. The TGI in [7], in test [8] and in [9] was over 100 µM each time.

As to `CN(C)CCNC(=O)c1cccc2nc(-c3ccccc3)oc12`, the TGI in [1] was over 100 µM; in test [2] it was 59.6 µM; in test [4], over 100 µM; in test [6] it was over 100 µM; in test [7], over 100 µM; in test [8], over 100 µM. Moreover, the TGI in test [10] and in test [9] was over 100 µM throughout.

Turning to `COc1ccc(N(C(=O)Nc2ccc(Cl)c(Cl)c2)C2c3cccn3C(=O)N2c2ccc(Cl)c(Cl)c2)cc1` (configuration not stated), the TGI is 94.8 µM in test [1]; over 100 µM in [2]; over 100 µM in test [3]; over 100 µM in test [4]; over 100 µM in test [6]; over 100 µM in [7]. In addition, the TGI in test [10] and in test [9] was over 100 µM each time.

Consider `CO[C@]12C[C@H](CNC(=O)c3ccc[nH]3)O[C@H]1NC(=O)N2`, for which the TGI in test [1], in test [2], in [3], in [4], in [5] and in test [6] was over 100 µM in each case. For the same molecule, the TGI in [7], in test [8] and in [9] was over 100 µM each time.

For the molecule `C[C@H]1SC(c2ccc(Cl)cc2Cl)N(NC(=O)c2ccncc2)C1=O` (some centres not stated), the TGI in test [1] is over 100 µM; in test [2] it was 37 µM; in [3] it was 29.7 µM; in [4] it was over 100 µM; in test [5], over 100 µM; in test [6], over 100 µM. Also, the TGI in test [8] is over 100 µM.

Regarding `CCON1CC(C(=O)OC)=C(O)C1=O`, the TGI in [1], in test [2], in [3], in test [4], in [5] and in [6] was over 100 µM throughout. For the same molecule, the TGI in test [8], in [10] and in test [9] was over 100 µM throughout.

Take `CC(=O)OCc1c(O)c2c(c(O)c1COC(C)=O)C(=O)C=CC2=O`: the TGI in [1] is 27.4 µM; in [2], 28.5 µM; in [4], 28.2 µM; in [6], 19.3 µM; in test [7], 35.7 µM; in [8], 33.4 µM. Also, the TGI in test [10] was determined as 31.3 µM; in test [9], 35.9 µM.

Take `CCOC(=O)/C(O)=C1\C(=O)N(C)C(=O)C1c1cccc(OC)c1` (configuration not stated): the TGI in test [1], in test [2], in [4], in [6], in test [7] and in [8] was over 100 µM throughout. For the same molecule, the TGI in test [10] and in test [9] was over 100 µM in each case.

Consider `CCOC(=O)c1nnsc1NN`, for which the TGI in test [1], in [2], in test [3], in test [4], in test [6] and in [7] was over 100 µM throughout. Also, the TGI in test [8], in test [10] and in test [9] was over 100 µM throughout.

`O=c1[nH]c(=O)n(C2CC(O)C(CO)O2)cc1OCc1ccccc1` (configuration not stated): the TGI in test [2], in test [3], in test [4], in [5], in [6] and in test [8] was over 100 µM each time. Besides, the TGI in test [9] is over 100 µM.

On to `C=C1c2nc3ccccc3n2C=C(c2ccc(Cl)cc2)N1c1ccc(OC)cc1`, for which the TGI was 18.5 µM in test [1]; 46.2 µM in test [2]; 45.5 µM in test [3]; 18.7 µM in test [4]; over 100 µM in test [6]; 19.2 µM in test [7]. Also, the TGI worked out at 23.7 µM in test [8], 28.3 µM in test [10] and 30.4 µM in test [9].
